Measured values as given in ChEMBL document CHEMBL1139501, “Synthesis and biological evaluation of benzodioxanylpiperazine derivatives as potent serotonin 5-HT(1A) antagonists: the discovery of Lecozotan” (J Med Chem, 2005).

Key:
[1] = target: T1, 5-hydroxytryptamine receptor 1A (Homo sapiens, UniProt P08908); experiment: biochemical
T1 sequence (P08908 whole entry): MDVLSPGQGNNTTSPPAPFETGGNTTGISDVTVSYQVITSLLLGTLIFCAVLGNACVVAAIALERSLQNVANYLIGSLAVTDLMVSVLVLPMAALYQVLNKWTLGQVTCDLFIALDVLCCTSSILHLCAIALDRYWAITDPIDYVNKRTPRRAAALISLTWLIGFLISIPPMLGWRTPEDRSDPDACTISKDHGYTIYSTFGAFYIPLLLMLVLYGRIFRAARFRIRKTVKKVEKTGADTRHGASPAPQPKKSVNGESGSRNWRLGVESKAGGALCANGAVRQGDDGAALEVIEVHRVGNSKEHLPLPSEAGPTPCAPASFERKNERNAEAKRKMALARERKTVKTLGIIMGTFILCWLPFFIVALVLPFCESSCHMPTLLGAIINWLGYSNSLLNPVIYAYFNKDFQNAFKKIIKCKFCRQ

Rattus norvegicus [2] = experiment: Effective dose on the 8-OH-DPAT induced response at 3 mg/kg sc in presence of 8-OH-DPAT (Effective dose value for 8-OH-DPAT = 0.25); assay type: functional; settings: route subcutaneous
[3] = target: T1, 5-hydroxytryptamine receptor 1A
[4] = target: T1, 5-hydroxytryptamine receptor 1A; remark: listed apart in the source
Rattus norvegicus [5] = experiment: Effective dose on the 8-OH-DPAT induced response at 3 mg/kg sc in presence of 8-OH-DPAT (Effective dose value for 8-OH-DPAT = 0.17); assay type: functional; settings: route subcutaneous
Rattus norvegicus [6] = experiment: Effective dose on the 8-OH-DPAT induced response at 3 mg/kg sc in presence of 8-OH-DPAT (Effective dose value for 8-OH-DPAT = 0.32); assay type: functional; settings: route subcutaneous
Rattus norvegicus [7] = experiment: Effective dose on the 8-OH-DPAT induced response at 3 mg/kg sc in presence of 8-OH-DPAT (Effective dose value for 8-OH-DPAT = 0.18); assay type: functional; settings: route subcutaneous

| SMILES | Ki [1] [nM] | IC50 [4] [nM] | further results |
| --- | --- | --- | --- |
| C[C@@H](CN(C(=O)c1ccc(C#N)cc1)c1ccccn1)N1CCN(c2cccc3c2OCCO3)CC1 | 9.2 | – | – |
| C[C@H](CN(C(=O)c1ccc([N+](=O)[O-])cc1)c1ccccn1)N1CCN(c2cccc3c2OCCO3)CC1 | 1 | 23.2 | ED50 (Rattus norvegicus [2]): 3.19 mg/kg; IC50 [3]: 4.3 nM |
| C[C@@H](CN(C(=O)c1ccc([N+](=O)[O-])cc1)c1ccccn1)N1CCN(c2cccc3c2OCCO3)CC1 | 3.4 | – | – |
| C[C@@H](CN(C(=O)c1ccc(C(F)(F)F)cc1)c1ccccn1)N1CCN(c2cccc3c2OCCO3)CC1 | 8.6 | – | – |
| C[C@H](CN(C(=O)c1ccc(Cl)cc1)c1ccccn1)N1CCN(c2cccc3c2OCCO3)CC1 | – | – | ED50 (Rattus norvegicus [5]): 1.82 mg/kg |
| C[C@H](CN(C(=O)c1ccc(C(F)(F)F)cc1)c1ccccn1)N1CCN(c2cccc3c2OCCO3)CC1 | 1.9 | 32.1 | ED50 (Rattus norvegicus [6]): 0.94 mg/kg; IC50 [3]: 6.2 nM |
| C[C@H](CN(C(=O)c1ccc(C#N)cc1)c1ccccn1)N1CCN(c2cccc3c2OCCO3)CC1 [LECOZOTAN] | – | 42 | ED50 (Rattus norvegicus [7]): 3.68 mg/kg |
